Data on one molecule can be found in patent US20080262044A1, “Pesticidal Mixtures” (Syngenta Participations AG, priority 2005, published 2008).

Structures are written as SMILES.

The test system of one assay is Spodoptera littoralis L2. Nature of the assay: Action against Spodoptera littoralis L2 (sprayed cotton leaves, petri dish). Format: in vivo. The conditions noted are these: 96 h. As for the experimental part: The following day leaves were placed in petri dishes containing a moist filter paper and 10 L2 larvae placed on the leaves. Petri dishes were covered with gauze and closed with a lid and left at a temperature of 25° C., 40-60% relative humidity and 16L:8D conditions. Assessment of dead and alife larvae was performed after four days. (30 insects assessed per treatment).

Assay [1] deals with Aphis craccivora (nymphs). Description: Action against Aphis craccivora (nymphs), bean leaf disks. Format: in vivo. As to conditions: foliar, 96 h, Table B4, Pyroquilon 1 ppm, WP 25, nymphs on bean leaf disks, after four days. The method, then: Fourteen day old bean plants (Vicia faba var. Wittkiens) were sprayed with 60 ml sample solution. The following day 3.5 cm leaf disks were cut and placed in petri dishes containing 2 ml agar (2%) and 5-10 adult aphids placed on the leaves. Petri dishes were covered with gauze and closed with a lid and placed up-side down. The following day all adult aphids were removed and only nymphs left on the leaf at a temperature of 20° C., 60% relative humidity and 16L:8D conditions. Assessment of dead and alife aphids performed after four days. (3 replicates per treatment).

A word on the mortality: it is the share of the test organisms that died. Take `O=C1CCc2cccc3c2N1CC3` [Pyroquilon, pyroquilon]: the mortality at 1 ppm in the assay with Spodoptera littoralis L2 (Table B1, Pyroquilon 1 ppm, WP 25, L2 larvae on cotton leaves, after four days) amounted to 6.7%; in assay [1] it was 3.3%. Also, the mortality at 10 ppm with Spodoptera littoralis L2 (Table B3, Pyroquilon 10 ppm, WP 25, after four days) was found to be 6.7%.
